According to patent publication US12201594B2, “Methods and compositions for treatment of pain using capsaicin” (Centrexion Therapeutics Corporation, priority 2017, dated 2025):

Key:
[1] = test system: human patients experiencing osteoarthritic knee joint pain; assay: Safety assessments (TEAEs, SAEs, procedural pain ratings) after single intra-articular injection of capsaicin with cooling and lidocaine, Example 1; type: in vivo; conditions: for All TEAEs / Arthralgia / Hepatic enzyme increased / Influenza / Joint effusion / Nasopharyngitis / Upper respiratory tract infection: through 24 weeks
Protocol: (§1) Human patients experiencing osteoarthritic knee joint pain received either placebo, a 0.5 mg intra-articular injection of capsaicin into the osteoarthritic knee joint, or a 1.0 mg intra-articular injection of capsaicin into the osteoarthritic knee joint. Transient burning sensation due to administration of capsaicin was attenuated by administering capsaicin according to the following procedure: (i) applying for a duration of about 15 minutes a cooling article to an exterior surface of a human patient's knee presenting with osteoarthritic knee joint pain, wherein the cooling article was a Breg cooling wrap cooled by circulating ice-cold water, (ii) administering by injection into the intra-articular space of the joint of the knee a 15 mL aliquot of a 2% w/w lidocaine solution in saline, (iii) applying for a duration of about 30 minutes a cooling article to an exterior surface of the knee, wherein the cooling article was a Breg cooling wrap cooled by circulating ice-cold water, (iv) administering by injection into the intra-articular space of the joint of the knee a 4 mL aliquot of a solution containing water, polyethylene glycol having a number-average molecular weight of about 300 g/mol, and for patients receiving capsaicin a dose of capsaicin in an amount of 0.5 mg or 1.0 mg, and (v) applying a cooling article to an exterior surface of the knee for a duration of at least about 30 minutes (and up to 60) minutes upon patient request), wherein the cooling article was a Breg cooling wrap cooled by circulating ice-cold water. Further description of experimental procedures and results are provided below:
(§2) Human patients aged 45-80 years with chronic knee osteoarthritis, stable moderate to severe pain, and intolerability to analgesics were randomized to receive a single intra-articular injection of placebo into the osteoarthritic knee, a single intra-articular injection of a 0.5 mg dose of capsaicin into the osteoarthritic knee, or a single intra-articular injection of a 1.0 mg dose of capsaicin into the osteoarthritic knee.
as §1, with “The test article (i.e., placebo” for “Human patients experiencing osteoarthritic knee joint pain received either placebo, a 0.5 mg intra-articular injection of capsaicin into the osteoarthritic knee joint,”, “capsaicin)” for “a 1.0 mg intra-articular injection of capsaicin into the osteoarthritic knee joint. Transient burning sensation due to administration of capsaicin”, “administered” for “attenuated by administering capsaicin”, “60” for “60)”, “water.” for “water. Further description of experimental procedures and results are provided below:”
Safety assessments included treatment-emergent adverse events (TEAEs), serious AEs (SAEs), laboratory abnormalities, and procedural pain ratings (none, mild, moderate, moderately severe, severe). The procedure pain ratings characterize the extent of transient burning sensation experienced by patients due to administration of capsaicin.

[2] = test system: osteoarthritic knee joint pain; assay: Patient Global Impression of Change (PGIC), Example 1; type: in vivo, human
Protocol: as §2
as §1, with “The test article (i.e., placebo” for “Human patients experiencing osteoarthritic knee joint pain received either placebo, a 0.5 mg intra-articular injection of capsaicin into the osteoarthritic knee joint,”, “capsaicin)” for “a 1.0 mg intra-articular injection of capsaicin into the osteoarthritic knee joint. Transient burning sensation due to administration of capsaicin”, “administered” for “attenuated by administering capsaicin”, “60” for “60)”, “water.” for “water. Further description of experimental procedures and results are provided below:”
(§3) Patients completed Patient Global Impression of Change (PGIC; change vs baseline in index knee on 7-point scale; 1=very much improved; 7=very much worse, with scores of 1 or 2 indicating significant improvement) and Patient-specific Functional Scale (PSFS; rate≤3 important activities difficult to perform due to index knee pain on 0-10 scale; 0-able to perform; 10=unable to perform) at scheduled visits. Odds ratios for PGIC scores were calculated with chi-square tests. Changes in Western Ontario and McMaster Universities Osteoarthritis Index (WOMAC) B stiffness subscale and WOMAC C function subscale through week 24 were also assessed. PSFS, WOMAC B, and WOMAC C scores were evaluated using a mixed model for repeated measures. Statistical tests were 2-sided (alpha, P=0.10).

[3] = test system: osteoarthritic knee joint pain; assay: Patient-specific Functional Scale (PSFS), Example 1; type: in vivo, human
Protocol: as §2
as §1, with “The test article (i.e., placebo” for “Human patients experiencing osteoarthritic knee joint pain received either placebo, a 0.5 mg intra-articular injection of capsaicin into the osteoarthritic knee joint,”, “capsaicin)” for “a 1.0 mg intra-articular injection of capsaicin into the osteoarthritic knee joint. Transient burning sensation due to administration of capsaicin”, “administered” for “attenuated by administering capsaicin”, “60” for “60)”, “water.” for “water. Further description of experimental procedures and results are provided below:”
as §3

[4] = test system: osteoarthritic knee joint pain; assay: WOMAC B stiffness subscale and WOMAC C function subscale, Example 1; type: in vivo, human; conditions: 1.0 mg dose; through week 16
Protocol: as §2, with “knee. […]” for “knee.”
as §3, with “Statistical tests were 2-sided (alpha, P=0.10).” left out

[5] = test system: pain due to an intermetatarsal neuroma; assay: Average walking pain due to intermetatarsal neuroma (NPRS) after two doses of trans-capsaicin, Example 3; type: in vivo, human; conditions: 200 μg
Protocol: Twenty-seven adult, human patients experiencing pain due to an intermetatarsal neuroma were treated by administering a first dose of trans-capsaicin (200 μg of trans-capsaicin) and then, after at least 11 weeks, administered a second dose of trans-capsaicin (200 μg of trans-capsaicin). Patients rated their average walking pain due to the intermetatarsal neuroma on a Numeric Pain Rating Scale (NPRS), where pain is characterized by the patient on a scale of zero to ten (with zero being “no pain”, and ten being “worst possible pain”). Patients rated their average walking pain due to the intermetatarsal neuroma on (i) just prior to receiving the injection of trans-capsaicin and (ii) four (4) weeks after receiving each injection of trans-capsaicin. Patients reported a reduction in average walking pain due to the intermetatarsal neuroma when measured at four weeks after injection of trans-capsaicin for each administration of trans-capsaicin. […]
Pain due to the intermetatarsal neuroma was evaluated by having patients rate their average walking pain due to the intermetatarsal neuroma on a Numeric Pain Rating Scale (NPRS), where pain is characterized by the patient on a scale of zero to ten (with zero being “no pain”, and ten being “worst possible pain”). […]

[6] = 2 hours after injection, all groups (capsaicin or placebo)
[7] = either 0.5 mg or 1.0 dose (n = 105)

SMILES: COc1cc(CNC(=O)CCCCC=CC(C)C)ccc1O [Capsaicin, N-[(4-hydroxy-3-methoxyphenyl)methyl]-8-methylnon-6-enamide]
- All TEAEs ([1]; 0.5 mg dose IA (n = 34)): 16 (47) n (%)
- Arthralgia ([1]; 0.5 mg dose IA (n = 34)): 3 (8.8) n (%)
- Hepatic enzyme increased ([1]; 0.5 mg dose IA (n = 34)): 2 (5.9) n (%)
- Influenza ([1]; 0.5 mg dose IA (n = 34)): 1 (2.9) n (%)
- Joint effusion ([1]; 0.5 mg dose IA (n = 34)): 3 (8.8) n (%)
- Nasopharyngitis ([1]; 0.5 mg dose IA (n = 34)): 1 (2.9) n (%)
- Upper respiratory tract infection ([1]; 0.5 mg dose IA (n = 34)): 2 (5.9) n (%)
- All TEAEs ([1]; 1.0 mg dose IA (n = 71)): 21 (30) n (%)
- Arthralgia ([1]; 1.0 mg dose IA (n = 71)): 5 (7.0) n (%)
- Hepatic enzyme increased ([1]; 1.0 mg dose IA (n = 71)): 1 (1.4) n (%)
- Influenza ([1]; 1.0 mg dose IA (n = 71)): 2 (2.8) n (%)
- Joint effusion ([1]; 1.0 mg dose IA (n = 71)): 0 n (%)
- Nasopharyngitis ([1]; 1.0 mg dose IA (n = 71)): 2 (2.8) n (%)
- Upper respiratory tract infection ([1]; 1.0 mg dose IA (n = 71)): 3 (4.2) n (%)
- patients reporting mild pain (procedural pain rating) [1, 6]: 39%
- patients reporting no pain (procedural pain rating) [1, 6]: 50%
- Incidence of TEAEs ([1]; capsaicin 0.5 mg dose): 47%
- TEAEs mild in severity ([1]; capsaicin 0.5 mg dose): 29%
- TEAEs moderate in severity ([1]; capsaicin 0.5 mg dose): 18%
- SAE ([1]; capsaicin 0.5 mg dose group, not considered treatment related): One SAE (shoulder pain from osteoarthritis)
- Incidence of TEAEs ([1]; capsaicin 1.0 mg dose): 30%
- TEAEs mild in severity ([1]; capsaicin 1.0 mg dose): 20%
- TEAEs moderate in severity ([1]; capsaicin 1.0 mg dose): 9.9%
- arthralgia (TEAE) ([1]; capsaicin 1.0 mg dose): 7.0%
- arthralgia (TEAE) ([1]; capsaicin regardless of dose): 7.6%
- upper respiratory tract infection (TEAE) ([1]; capsaicin regardless of dose): 4.8%
- All TEAEs [1, 7]: 37 (35) n (%)
- Arthralgia [1, 7]: 8 (7.6) n (%)
- Hepatic enzyme increased [1, 7]: 3 (2.9) n (%)
- Influenza [1, 7]: 3 (2.9) n (%)
- Joint effusion [1, 7]: 3 (2.9) n (%)
- Nasopharyngitis [1, 7]: 3 (2.9) n (%)
- Upper respiratory tract infection [1, 7]: 5 (4.8) n (%)
- tolerability / safety profile ([1]; single injection, 1.0 mg dose, up to 24 weeks, comparable to placebo): well tolerated
- PGIC: Odds Ratio vs Placebo ([2]; 0.5 mg dose, week 4): 1.76
- PGIC: proportion of patients reporting significant improvement in the index knee ([2]; 0.5 mg dose, week 4): 58%
- PGIC: Odds Ratio vs Placebo ([2]; 0.5 mg dose, week 8): 1.89
- PGIC: Odds Ratio vs Placebo ([2]; 0.5 mg dose, week 12): 2.75
- PGIC: Odds Ratio vs Placebo ([2]; 0.5 mg dose, week 16): 2.37
- PGIC: Odds Ratio vs Placebo ([2]; 0.5 mg dose, week 24): 1.68
- PGIC: Odds Ratio vs Placebo ([2]; 1.0 mg dose, week 4): 2.34
- PGIC: proportion of patients reporting significant improvement in the index knee ([2]; 1.0 mg dose, week 4): 64%
- PGIC: Odds Ratio vs Placebo ([2]; 1.0 mg dose, week 8): 2.50
- PGIC: Odds Ratio vs Placebo ([2]; 1.0 mg dose, week 12): 2.40
- PGIC: Odds Ratio vs Placebo ([2]; 1.0 mg dose, week 16): 1.85
- PGIC: Odds Ratio vs Placebo ([2]; 1.0 mg dose, week 24): 1.64
- PGIC: likelihood of significant improvement compared with placebo ([2]; 1.0 mg dose, weeks 4, 8 and 12): greater than two-fold likelihood
- PSFS: LSMD versus Placebo ([3]; 0.5 mg dose, week 4): 0.01
- PSFS: LSMD versus Placebo ([3]; 0.5 mg dose, week 8): −0.03
- PSFS: LSMD versus Placebo ([3]; 0.5 mg dose, week 12): −0.4
- PSFS: LSMD versus Placebo ([3]; 0.5 mg dose, week 16): −0.5
- PSFS: LSMD versus Placebo ([3]; 0.5 mg dose, week 24): −0.05
- PSFS: LSMD versus Placebo ([3]; 1.0 mg dose, week 4): −1.4
- PSFS: LSMD versus Placebo ([3]; 1.0 mg dose, week 8): −0.9
- PSFS: LSMD versus Placebo ([3]; 1.0 mg dose, week 12): −1.1
- PSFS: LSMD versus Placebo ([3]; 1.0 mg dose, week 16): −0.9
- PSFS: LSMD versus Placebo ([3]; 1.0 mg dose, week 24): −0.5
- PSFS: ability to perform activities versus placebo ([3]; 1.0 mg dose, weeks 4-16): significantly improved
- WOMAC B score, LSMD versus placebo [4]: −2.1
- WOMAC C score, LSMD versus placebo [4]: −14.8

SMILES: COc1cc(CNC(=O)CCCCC=CC(C)C)ccc1O [trans-capsaicin, N-[(4-hydroxy-3-methoxyphenyl)methyl]-8-methylnon-6-enamide]
- reduction in average walking pain due to the intermetatarsal neuroma (NPRS) ([5]; four weeks after first dose, vs prior to first dose): 1.6 point
- reduction in average walking pain due to the intermetatarsal neuroma (NPRS) ([5]; four weeks after second dose, vs just prior to second dose): 2.3 point
